Data: US11331299B2, “Medicinal use of serrulatane diterpenes” (The University of Sydney, priority 2016, dated 2022)
Values joined by “and” are separate entries in the source; they are usually repeats but may differ in a detail not shown here. Identical values can stand only once. Like-named read-outs stand apart in the source and are kept apart here.

Key:
CYP2C19 = biological target: T1, CYP2C19 (Homo sapiens, UniProt P33261); experiment: Cytochrome P450 Inhibition (CYP panel); assay type: in vitro ADME; settings: human liver microsomes, probe omeprazole
T1 construct: Human liver microsomes; from tissue; host or cells: human liver microsomes
T1 sequence (P33261 whole entry): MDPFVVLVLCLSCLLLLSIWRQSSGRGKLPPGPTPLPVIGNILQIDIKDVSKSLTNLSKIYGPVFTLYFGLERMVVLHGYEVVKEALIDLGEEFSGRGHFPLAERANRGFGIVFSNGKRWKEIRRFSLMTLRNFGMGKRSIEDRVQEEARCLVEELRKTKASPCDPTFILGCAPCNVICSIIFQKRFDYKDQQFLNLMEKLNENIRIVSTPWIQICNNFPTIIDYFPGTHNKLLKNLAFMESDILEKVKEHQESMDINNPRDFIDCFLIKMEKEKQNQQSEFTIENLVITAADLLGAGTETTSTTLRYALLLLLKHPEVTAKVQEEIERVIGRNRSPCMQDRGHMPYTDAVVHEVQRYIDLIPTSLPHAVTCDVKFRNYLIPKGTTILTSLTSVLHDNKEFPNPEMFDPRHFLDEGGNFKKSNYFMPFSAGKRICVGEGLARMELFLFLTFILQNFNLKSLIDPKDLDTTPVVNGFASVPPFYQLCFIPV

Lipoxygenase 12-LO = biological target: T2, Lipoxygenase 12-LO (Homo sapiens, UniProt P18054); experiment: Lipoxygenase 12-LO; assay type: biochemical; settings: assay year 2015, read-out: % Control Response
T2 construct: Human platelets; from tissue; host or cells: human platelets
T2 sequence (P18054 1-663): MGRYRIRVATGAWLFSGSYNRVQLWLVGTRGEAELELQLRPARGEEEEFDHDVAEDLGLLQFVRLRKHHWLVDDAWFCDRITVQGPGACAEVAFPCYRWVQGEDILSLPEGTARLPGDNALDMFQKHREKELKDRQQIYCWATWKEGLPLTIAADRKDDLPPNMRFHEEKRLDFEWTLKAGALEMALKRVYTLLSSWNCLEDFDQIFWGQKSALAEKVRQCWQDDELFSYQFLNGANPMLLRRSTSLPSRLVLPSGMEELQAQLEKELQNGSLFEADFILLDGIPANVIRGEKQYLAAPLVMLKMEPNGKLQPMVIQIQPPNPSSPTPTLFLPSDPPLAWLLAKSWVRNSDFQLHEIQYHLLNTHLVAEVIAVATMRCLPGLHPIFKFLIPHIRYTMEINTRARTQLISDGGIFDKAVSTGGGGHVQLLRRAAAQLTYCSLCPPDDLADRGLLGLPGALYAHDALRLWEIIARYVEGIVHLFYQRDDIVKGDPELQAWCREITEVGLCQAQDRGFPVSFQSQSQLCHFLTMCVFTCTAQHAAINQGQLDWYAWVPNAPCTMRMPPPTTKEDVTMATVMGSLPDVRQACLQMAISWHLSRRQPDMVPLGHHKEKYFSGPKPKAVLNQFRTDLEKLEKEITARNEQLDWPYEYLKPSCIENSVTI
Description: (§1) The in vitro pharmacological studies were conducted by Eurofins PanLab (Taiwan) using the parameters shown in Table 13 with respect to appropriate literature references.

Xanthine Oxidase = biological target: T3, Xanthine Oxidase (Bos taurus, UniProt P80457); experiment: Xanthine Oxidase; assay type: biochemical, Bovine; settings: assay year 2015, read-out: % Control Response
T3 construct: Bovine buttermilk; from tissue; host or cells: bovine buttermilk
T3 sequence (P80457 whole entry): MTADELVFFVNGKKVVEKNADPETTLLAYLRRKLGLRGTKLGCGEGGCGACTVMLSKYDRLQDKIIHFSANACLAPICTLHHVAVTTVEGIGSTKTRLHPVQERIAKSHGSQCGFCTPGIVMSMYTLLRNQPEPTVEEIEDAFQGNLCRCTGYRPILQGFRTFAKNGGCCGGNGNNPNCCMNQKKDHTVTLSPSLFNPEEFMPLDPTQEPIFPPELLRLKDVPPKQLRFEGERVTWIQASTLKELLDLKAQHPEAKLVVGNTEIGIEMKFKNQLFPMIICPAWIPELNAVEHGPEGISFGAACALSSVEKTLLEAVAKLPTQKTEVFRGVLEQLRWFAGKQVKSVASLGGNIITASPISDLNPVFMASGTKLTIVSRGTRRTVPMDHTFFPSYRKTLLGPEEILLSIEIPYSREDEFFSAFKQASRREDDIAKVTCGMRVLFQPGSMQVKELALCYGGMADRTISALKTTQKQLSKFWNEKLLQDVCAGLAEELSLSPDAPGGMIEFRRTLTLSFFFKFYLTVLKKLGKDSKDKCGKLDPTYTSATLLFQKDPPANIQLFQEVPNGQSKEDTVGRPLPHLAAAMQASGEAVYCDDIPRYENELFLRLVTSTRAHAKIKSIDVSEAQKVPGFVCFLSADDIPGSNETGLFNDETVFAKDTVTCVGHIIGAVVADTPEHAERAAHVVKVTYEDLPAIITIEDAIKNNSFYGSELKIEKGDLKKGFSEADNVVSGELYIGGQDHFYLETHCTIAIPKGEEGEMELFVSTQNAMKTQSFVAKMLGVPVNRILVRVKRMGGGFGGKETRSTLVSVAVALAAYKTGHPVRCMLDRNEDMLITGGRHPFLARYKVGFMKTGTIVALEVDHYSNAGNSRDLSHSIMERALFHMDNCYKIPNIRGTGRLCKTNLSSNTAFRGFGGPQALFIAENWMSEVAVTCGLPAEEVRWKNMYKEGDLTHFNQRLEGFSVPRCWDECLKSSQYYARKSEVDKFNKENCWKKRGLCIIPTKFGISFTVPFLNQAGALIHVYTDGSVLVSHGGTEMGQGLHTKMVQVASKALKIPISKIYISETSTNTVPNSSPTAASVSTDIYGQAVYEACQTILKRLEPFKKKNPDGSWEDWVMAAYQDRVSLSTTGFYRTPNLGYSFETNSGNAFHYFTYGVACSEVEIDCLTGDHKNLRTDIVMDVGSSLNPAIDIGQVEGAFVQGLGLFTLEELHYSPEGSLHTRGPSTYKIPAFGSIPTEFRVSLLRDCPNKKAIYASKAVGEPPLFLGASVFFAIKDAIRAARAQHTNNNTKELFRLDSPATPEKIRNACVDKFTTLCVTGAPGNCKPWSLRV
Description: as §1

5-Lipoxygenase = biological target: T4, 5-Lipoxygenase (Homo sapiens, UniProt P09917); experiment: 5-Lipoxygenase; assay type: biochemical; settings: for remaining activity at 10 µM: assay year 2015, read-out: % Control Response
T4 construct: host or cells: Insect Sf9 cells
T4 sequence (P09917 1-674): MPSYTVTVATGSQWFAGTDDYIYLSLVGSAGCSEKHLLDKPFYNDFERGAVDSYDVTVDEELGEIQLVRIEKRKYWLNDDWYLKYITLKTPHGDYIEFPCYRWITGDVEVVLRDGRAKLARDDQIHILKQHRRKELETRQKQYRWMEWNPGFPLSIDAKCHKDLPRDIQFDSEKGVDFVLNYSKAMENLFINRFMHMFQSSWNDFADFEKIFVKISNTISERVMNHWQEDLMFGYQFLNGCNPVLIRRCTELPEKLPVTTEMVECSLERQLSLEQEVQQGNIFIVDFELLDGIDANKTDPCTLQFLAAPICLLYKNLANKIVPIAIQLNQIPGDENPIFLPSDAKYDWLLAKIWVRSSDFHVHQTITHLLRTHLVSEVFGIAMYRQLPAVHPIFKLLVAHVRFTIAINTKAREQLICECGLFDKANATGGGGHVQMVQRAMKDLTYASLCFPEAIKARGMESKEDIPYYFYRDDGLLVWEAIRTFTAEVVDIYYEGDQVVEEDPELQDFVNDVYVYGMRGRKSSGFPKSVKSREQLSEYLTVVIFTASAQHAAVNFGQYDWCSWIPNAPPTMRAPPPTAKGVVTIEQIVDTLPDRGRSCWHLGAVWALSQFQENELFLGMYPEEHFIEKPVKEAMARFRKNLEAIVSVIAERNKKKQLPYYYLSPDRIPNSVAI

[1] = biological target: MSK2(h) (substrate histone H3 full length) (Homo sapiens, UniProt O75676); experiment: Epigenetic enzyme assay, Kinases; assay type: biochemical; settings: read-out: % Inhibition of Control Values
MSK2(h) (substrate histone H3 full length), sequence (O75676 whole entry): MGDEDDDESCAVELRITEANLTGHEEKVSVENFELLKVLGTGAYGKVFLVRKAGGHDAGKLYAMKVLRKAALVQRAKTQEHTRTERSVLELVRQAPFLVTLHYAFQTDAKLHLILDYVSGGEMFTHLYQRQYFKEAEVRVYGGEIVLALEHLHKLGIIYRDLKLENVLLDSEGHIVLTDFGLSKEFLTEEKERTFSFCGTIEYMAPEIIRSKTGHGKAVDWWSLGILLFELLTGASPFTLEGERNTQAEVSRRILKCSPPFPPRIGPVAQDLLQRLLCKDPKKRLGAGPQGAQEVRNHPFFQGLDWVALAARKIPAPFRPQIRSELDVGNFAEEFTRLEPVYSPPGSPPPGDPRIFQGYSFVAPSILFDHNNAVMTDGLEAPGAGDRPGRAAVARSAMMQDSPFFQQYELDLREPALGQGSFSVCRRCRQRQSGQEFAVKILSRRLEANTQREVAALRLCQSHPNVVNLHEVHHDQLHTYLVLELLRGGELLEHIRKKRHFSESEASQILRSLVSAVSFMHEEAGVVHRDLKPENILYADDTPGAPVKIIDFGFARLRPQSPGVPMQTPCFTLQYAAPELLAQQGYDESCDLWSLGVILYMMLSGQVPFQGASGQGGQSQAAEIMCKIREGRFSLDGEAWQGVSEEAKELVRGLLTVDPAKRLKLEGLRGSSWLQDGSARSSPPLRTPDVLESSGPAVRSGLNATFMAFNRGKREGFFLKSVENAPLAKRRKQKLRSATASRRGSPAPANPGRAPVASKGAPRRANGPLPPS

CREBBP (h) bromodomain = biological target: T5, CREBBP (h) bromodomain (Homo sapiens, UniProt Q92793); experiment: Epigenetic binding assay, Bromodomain; settings: for inhibition at 10 µM: read-out: % Inhibition of Control Specific Binding
T5 construct: Bromodomain; Eurofins CEREP (France), contract laboratory
T5 sequence (Q92793 1085-1192 limits assumed): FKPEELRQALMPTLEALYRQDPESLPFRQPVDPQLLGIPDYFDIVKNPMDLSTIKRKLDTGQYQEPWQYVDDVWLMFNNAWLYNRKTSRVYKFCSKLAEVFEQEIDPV

CYP3A = CYP3A (Homo sapiens, UniProt P08684); experiment: Cytochrome P450 Inhibition (CYP panel); assay type: in vitro ADME; settings: probe testosterone; for inhibition at 1 µM: human liver microsomes; for inhibition at 10 µM: liver microsomes
CYP3A, sequence (P08684 2-503): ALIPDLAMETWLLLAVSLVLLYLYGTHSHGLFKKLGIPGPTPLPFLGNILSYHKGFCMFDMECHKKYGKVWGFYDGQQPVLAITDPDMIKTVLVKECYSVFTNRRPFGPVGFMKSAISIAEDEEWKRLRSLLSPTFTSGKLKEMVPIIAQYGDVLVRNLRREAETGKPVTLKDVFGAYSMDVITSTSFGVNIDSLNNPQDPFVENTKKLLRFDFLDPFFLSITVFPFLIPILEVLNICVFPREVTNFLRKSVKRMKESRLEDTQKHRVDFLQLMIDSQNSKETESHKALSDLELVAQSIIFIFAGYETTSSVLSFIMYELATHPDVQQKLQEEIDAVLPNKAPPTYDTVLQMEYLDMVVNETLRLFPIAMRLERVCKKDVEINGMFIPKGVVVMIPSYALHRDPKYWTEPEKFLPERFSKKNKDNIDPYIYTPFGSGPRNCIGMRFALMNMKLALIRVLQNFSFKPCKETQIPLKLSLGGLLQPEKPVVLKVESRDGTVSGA

Chemokine CX3CR1 = biological target: T6, Chemokine CX3CR1 (Homo sapiens, UniProt P49238); experiment: Chemokine CX3CR1 radio ligand binding; settings: assay year 2015
T6 construct: expressed in transfected cells; host or cells: Chem-1 cells
T6 sequence (P49238 1-355): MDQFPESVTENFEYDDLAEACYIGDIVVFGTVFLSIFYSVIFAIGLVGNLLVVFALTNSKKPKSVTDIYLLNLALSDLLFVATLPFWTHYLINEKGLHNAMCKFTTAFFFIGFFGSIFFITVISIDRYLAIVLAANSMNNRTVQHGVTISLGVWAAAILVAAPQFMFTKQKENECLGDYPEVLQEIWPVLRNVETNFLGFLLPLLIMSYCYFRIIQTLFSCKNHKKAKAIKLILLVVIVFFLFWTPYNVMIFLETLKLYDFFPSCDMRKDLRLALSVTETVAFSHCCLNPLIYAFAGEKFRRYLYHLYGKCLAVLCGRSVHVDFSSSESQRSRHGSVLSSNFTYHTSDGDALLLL
Description: as §1

[2] = CYP2C19 (omeprazole sub.), Human liver microsomes, read-out: % Inhibition of Control Values
[3] = CYP3A (testosterone sub.), Human liver microsomes, read-out: % Inhibition of Control Values

Row | SMILES | inhibition at 1 µM (CYP2C19; read-out: % inhibition) | inhibition at 1 µM (CYP2C19; [2]) | inhibition at 10 µM (CYP2C19; [2]) | remaining activity at 10 µM (Lipoxygenase 12-LO) | remaining activity at 10 µM (Xanthine Oxidase) | remaining activity at 10 µM (5-Lipoxygenase) | IC50 (5-Lipoxygenase; concentration-response 10 to 0.01 μM) | inhibition at 10 µM [1] | % Inhibition of Control Specific Binding (CREBBP (h) bromodomain; 10 μM) | inhibition at 10 µM (CREBBP (h) bromodomain; 10 μM) | IC50 (CREBBP (h) bromodomain; Table 9, inhibition/concentration-response curve) | inhibition at 1 µM (CYP3A; read-out: % inhibition) | inhibition at 1 µM (CYP3A; [3]) | inhibition at 10 µM (CYP3A; [3]) | percent of control response at 10 µM (Chemokine CX3CR1)
1 | CC(C)=CCC[C@H](CO)[C@@H]1CC[C@@H](C)c2c1cc(C)c(O)c2O [Compound 1, 7,8,18-trihydroxyserrulat-14-ene] | 25 to 37% | 37% | 90% | 60% | 14% | 79% | 2300 nM and 2310 nM | 9% | significant inhibitory activity | 65% | 3400 nM | 7 to 20% | 7% | 77% | -1%
2 | CC(C)=CCC[C@@H]1C(O)Oc2c(C)cc(O)c3c2[C@H]1CC[C@H]3C (stereo partly drawn) [Compound 2, 5,18-epoxyserrulat-14-en-8,18-diol] | 25 to 37% | 34% | 73% | 40% | 20% | 53% |  | 12% |  | 21% |  | 7 to 20% | 17% | 57% | 5%
3 | CC(C)=CCC[C@@H]1COc2c(C)cc(O)c3c2[C@H]1CC[C@H]3C [Compound 3, 5,18-epoxy-8-hydroxyserrulat-14-ene] |  |  |  | 29% | 27% | 67% |  | -1% |  | 17% |  |  |  |  | 7%
4 | CC(C)=CCC[C@H](C)[C@@H]1CC[C@@H](C)c2c1cc(C)c(O)c2O [Compound 4, 7,8-dihydroxyserrulat-14-ene] | 25 to 37% | 25% | 78% |  |  |  |  |  |  |  |  | 7 to 20% | 20% | 48% | 
